# Results: US4803303A, “N-substituted pseudo-aminosugars, their production and use” (Takeda Chemical Industries, Ltd., priority 1981, dated 1989)
# Structures can show the parent of a compound that is named as a salt.
# System: α-glucoside hydrolase
# Assay: α-glucosidase inhibitory activity (general statement)
# Assay type: biochemical
# Conditions: statement in words
row,Structure (SMILES),α-glucosidase inhibitory activity
1,N[C@H]1C[C@H](CO)[C@@H](O)[C@H](O)[C@H]1O [validamine],possesses a highly valuable action of suppressing the function of α-glucoside hydrolase
2,"N[C@H]1C[C@](O)(CO)[C@@H](O)[C@H](O)[C@H]1O [valiolamine, 1L(1S)-(1(OH),2,4,5/1,3)-5-amino-1-hydroxymethyl-1,2,3,4-cyclohexanetetrol]",α-glucosidase inhibitory activity

# Target: maltase (from porcine intestinal mucosa)
# Assay: inhibitory activity against maltase prepared from porcine intestinal mucosa (substrate maltose)
# Assay type: biochemical
# Conditions: given in the examples; read-out: IC50 (maltase)
# Description: (§1) The inhibitory activities of the compounds of this invention against α-glucosidase (yeast, type I, produced by Sigma Chemical Co. the United States of America) as well as maltase and saccharase prepared from porcine intestinal mucosa (prepared in accordance with the procedure as described by B. Borgstro m and A. Dahlgvist in Acta Chem. Scand.; 12, 1997-2006, (1958)), when maltose and sucrose are used as a substrate, are determined by adding to 0.25 ml of a solution of an enzyme prepared by diluting suitably with 0.02M phosphate buffer (pH 6.8) 0.5 ml of a solution of an inhibitory substance to be tested in the same buffer and 0.25 ml of 0.05M maltose or 0.05M sucrose as the substrate in the same buffer, allowing the mixture to react at 37° C. for 10 minutes, then adding 3 ml of Glucose B-Test Reagent (a glucose oxidase reagent for measurement of glucose, produced by Wako Pure Chemical Co., Japan), further warming the mixture at 37° C. for 20 minutes, and measuring the absorbance of the reaction solution at 505 nm. […]
row,Structure (SMILES),IC50 [nM]
1,"OCC(N[C@H]1C[C@H](CO)[C@@H](O)[C@H](O)[C@H]1O)[C@@H](O)[C@H](O)[C@H](O)CO (stereo partly drawn) [Example 19, N-(D-arabino-2,3,4,5-tetrahydroxy-1-hydroxymethylpentyl)validamine]",590
2,"OC[C@@]1(O)C[C@H](NC2CCCCC2)[C@H](O)[C@@H](O)[C@@H]1O [Example 37, N-cyclohexylvaliolamine]",410
3,OCC(N[C@H]1C[C@H](CO)[C@@H](O)[C@H](O)[C@H]1O)c1ccccc1 (stereo partly drawn) [N-[α-(hydroxymethyl)benzyl]validamine],4500
4,"COc1ccccc1C(O)CN[C@H]1C[C@](O)(CO)[C@@H](O)[C@H](O)[C@H]1O (stereo partly drawn) [Example 41, N-(β-hydroxy-2-methoxyphenetyl)valiolamine]",63
5,"OC[C@@]1(O)C[C@H](NC2CCCC2O)[C@H](O)[C@@H](O)[C@@H]1O (single isomer, unassigned) [Example 38 Isomer showing [α]D^24-16.2°, N-(2-hydroxycyclopentyl)valiolamine]",58
6,"OC[C@H]1C[C@H](NCC(O)COc2ccccc2)[C@H](O)[C@@H](O)[C@@H]1O (some centres unmarked) [Example 18, N-(2-hydroxy-3-phenoxypropyl)validamine]",3400
7,"CC(C)(C)c1cc(CN[C@H]2C[C@](O)(CO)[C@@H](O)[C@H](O)[C@H]2O)cc(C(C)(C)C)c1O [Example 40, N-(3,5,-di-tert-butyl-4-hydroxybenzyl)valiolamine]",43

# Same assay, conditions: read-out: The concentrations of 50% inhibition against maltase (substrate:maltose) IC50; Table 1; porcine intestinal mucosa maltase, substrate maltose, pH 6.8, 37° C.
row,Structure (SMILES),IC50 [nM]
1,OCC(CO)N[C@H]1C[C@](O)(CO)[C@@H](O)[C@H](O)[C@H]1O [drawing 7],15
2,OC[C@@]1(O)C[C@H](NCC(O)COc2ccccc2)[C@H](O)[C@@H](O)[C@@H]1O (some centres unmarked) [drawing 12],33
3,OC[C@H]1C[C@H](NCC(O)c2ccccc2)[C@H](O)[C@@H](O)[C@@H]1O (some centres unmarked) [drawing 10],1700
4,"OC[C@@]1(O)C[C@H](NCC(O)c2ccccc2)[C@H](O)[C@@H](O)[C@@H]1O (single isomer, unassigned) [drawing 9]",5.8
5,OC[C@@]1(O)C[C@H](NCCc2ccccc2)[C@H](O)[C@@H](O)[C@@H]1O [drawing 13],100
6,CC(C)(C)c1cc(CN[C@H]2C[C@H](CO)[C@@H](O)[C@H](O)[C@H]2O)cc(C(C)(C)C)c1O,36000
7,OC[C@H]1C[C@H](NCCCc2ccccc2)[C@H](O)[C@@H](O)[C@@H]1O [drawing 14],92000
8,OCC(N[C@H]1C[C@H](CO)[C@@H](O)[C@H](O)[C@H]1O)C(O)c1ccccc1 (some centres unmarked) [drawing 11],32000
9,"OC[C@@]1(O)C[C@H](NCC(O)c2ccccc2)[C@H](O)[C@@H](O)[C@@H]1O (single isomer, unassigned) [drawing 8]",50

# Target: T1, saccharase (from porcine intestinal mucosa) (Sus scrofa, UniProt P56729)
# T1 construct: maltase and saccharase prepared from porcine intestinal mucosa; from tissue; host or cells: porcine intestinal mucosa
# T1 sequence (P56729 with tags, fused parts or gaps limits assumed): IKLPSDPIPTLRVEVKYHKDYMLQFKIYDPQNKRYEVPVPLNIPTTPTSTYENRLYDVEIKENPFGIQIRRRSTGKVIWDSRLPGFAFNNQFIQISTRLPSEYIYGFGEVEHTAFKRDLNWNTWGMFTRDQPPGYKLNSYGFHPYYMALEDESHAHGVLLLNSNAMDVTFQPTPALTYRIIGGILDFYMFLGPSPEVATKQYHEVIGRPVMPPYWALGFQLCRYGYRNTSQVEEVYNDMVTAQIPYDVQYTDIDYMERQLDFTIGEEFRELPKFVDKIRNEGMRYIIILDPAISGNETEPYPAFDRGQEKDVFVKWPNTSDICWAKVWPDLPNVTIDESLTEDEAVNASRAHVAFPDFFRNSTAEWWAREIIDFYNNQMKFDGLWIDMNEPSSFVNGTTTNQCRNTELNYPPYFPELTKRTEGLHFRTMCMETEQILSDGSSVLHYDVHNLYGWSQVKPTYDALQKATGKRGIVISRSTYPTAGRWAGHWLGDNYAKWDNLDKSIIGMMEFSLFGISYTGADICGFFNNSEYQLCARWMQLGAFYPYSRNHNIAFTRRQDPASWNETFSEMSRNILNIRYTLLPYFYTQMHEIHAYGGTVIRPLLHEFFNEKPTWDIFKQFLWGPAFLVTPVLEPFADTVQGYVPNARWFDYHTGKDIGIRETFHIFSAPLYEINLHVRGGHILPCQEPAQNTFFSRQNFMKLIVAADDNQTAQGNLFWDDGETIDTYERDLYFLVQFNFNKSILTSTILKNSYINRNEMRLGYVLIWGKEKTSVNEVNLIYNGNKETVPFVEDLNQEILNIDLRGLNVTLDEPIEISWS
# T1 sequence (P56729 with tags, fused parts or gaps partner limits assumed): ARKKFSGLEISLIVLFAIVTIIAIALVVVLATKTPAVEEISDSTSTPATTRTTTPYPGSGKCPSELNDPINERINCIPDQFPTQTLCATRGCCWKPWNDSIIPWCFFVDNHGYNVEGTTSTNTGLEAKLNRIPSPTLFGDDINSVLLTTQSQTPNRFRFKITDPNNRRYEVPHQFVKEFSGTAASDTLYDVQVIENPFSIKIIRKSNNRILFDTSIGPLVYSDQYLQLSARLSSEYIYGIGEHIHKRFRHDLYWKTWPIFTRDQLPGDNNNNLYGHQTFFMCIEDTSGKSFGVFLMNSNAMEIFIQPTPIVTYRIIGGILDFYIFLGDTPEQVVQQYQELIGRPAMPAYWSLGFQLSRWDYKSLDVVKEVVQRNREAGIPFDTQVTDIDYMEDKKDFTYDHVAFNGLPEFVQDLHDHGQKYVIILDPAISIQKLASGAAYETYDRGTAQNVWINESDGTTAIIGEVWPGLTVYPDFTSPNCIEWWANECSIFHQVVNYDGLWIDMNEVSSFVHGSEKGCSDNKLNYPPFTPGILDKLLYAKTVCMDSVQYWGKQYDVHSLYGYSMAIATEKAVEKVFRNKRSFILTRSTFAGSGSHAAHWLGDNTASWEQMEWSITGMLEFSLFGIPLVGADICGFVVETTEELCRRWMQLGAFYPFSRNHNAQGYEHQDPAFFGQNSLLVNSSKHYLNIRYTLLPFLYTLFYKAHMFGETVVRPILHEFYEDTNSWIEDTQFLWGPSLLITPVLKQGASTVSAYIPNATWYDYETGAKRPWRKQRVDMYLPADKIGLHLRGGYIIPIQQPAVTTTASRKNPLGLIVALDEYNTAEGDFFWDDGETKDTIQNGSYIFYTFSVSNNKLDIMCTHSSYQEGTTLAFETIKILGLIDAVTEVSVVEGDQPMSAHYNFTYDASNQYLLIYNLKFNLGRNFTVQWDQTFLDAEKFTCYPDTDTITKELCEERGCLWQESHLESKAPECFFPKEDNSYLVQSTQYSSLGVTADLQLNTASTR
# Assay: inhibitory activity against saccharase prepared from porcine intestinal mucosa (substrate sucrose)
# Assay type: biochemical
# Conditions: not given
# Description: as §1
row,Structure (SMILES),IC50 [nM]
1,OCC(CO)N[C@H]1C[C@](O)(CO)[C@@H](O)[C@H](O)[C@H]1O [drawing 17],4.6

# Same assay, conditions: IC50 (saccharase), given in the examples
row,Structure (SMILES),IC50 [nM]
1,"OC[C@@]1(O)C[C@H](NC2CCCC2O)[C@H](O)[C@@H](O)[C@@H]1O (single isomer, unassigned) [Example 38 Isomer showing [α]D^24 +40.4°, N-(2-hydroxycyclopentyl)valiolamine]",130
2,"OC[C@H]1C[C@H](NC2CCCC2O)[C@H](O)[C@@H](O)[C@@H]1O (some centres unmarked) [Example 21, N-(2-hydroxycyclopentyl)validamine]",130
3,"OC[C@@]1(O)C[C@H](NC2CCCC2O)[C@H](O)[C@@H](O)[C@@H]1O (single isomer, unassigned) [Example 38 Isomer showing [α]D^24-16.2°, N-(2-hydroxycyclopentyl)valiolamine]",24
4,"OC[C@@]1(O)C[C@H](NC2CCCC2)[C@H](O)[C@@H](O)[C@@H]1O [Example 39, N-cyclopentylvaliolamine]",25
5,"OC[C@H]1C[C@H](NC2CCCCC2O)[C@H](O)[C@@H](O)[C@@H]1O (some centres unmarked) [Example 20, N-(2-hydroxycyclohexyl)validamine]",96

# Same assay, conditions: Table 2; porcine intestinal mucosa saccharase, substrate sucrose, pH 6.8, 37° C.
row,Structure (SMILES),IC50 [nM]
1,OC[C@@]1(O)C[C@H](NCCc2ccccc2)[C@H](O)[C@@H](O)[C@@H]1O [drawing 26],2.3
2,OC[C@@]1(O)C[C@H](NCC(O)COc2ccccc2)[C@H](O)[C@@H](O)[C@@H]1O (some centres unmarked) [drawing 20],8.6
3,OC[C@H]1C[C@H](NCCCc2ccccc2)[C@H](O)[C@@H](O)[C@@H]1O [drawing 24],1900
4,OCC(N[C@H]1C[C@H](CO)[C@@H](O)[C@H](O)[C@H]1O)C(O)c1ccccc1 (some centres unmarked) [drawing 33],260
5,OC[C@H]1C[C@H](NCC(O)c2ccccc2)[C@H](O)[C@@H](O)[C@@H]1O (some centres unmarked) [drawing 32],22
6,OC[C@@]1(O)C[C@H](NCc2ccc(Br)cc2)[C@H](O)[C@@H](O)[C@@H]1O,15
7,"OC[C@@]1(O)C[C@H](NCC(O)c2ccccc2)[C@H](O)[C@@H](O)[C@@H]1O (single isomer, unassigned) [drawing 18]",19
8,CC(C)=CCC/C(C)=C/CN[C@H]1C[C@](O)(CO)[C@@H](O)[C@H](O)[C@H]1O,11
9,OCC(O)C(O)C(O)C(O)CN[C@H]1C[C@](O)(CO)[C@@H](O)[C@H](O)[C@H]1O (some centres unmarked),36
10,"OC[C@@]1(O)C[C@H](NCC(O)c2ccccc2)[C@H](O)[C@@H](O)[C@@H]1O (single isomer, unassigned) [drawing 19]",2.9
11,OCC1(O)CC(NCc2ccco2)C(O)C(O)C1O (centres unmarked),15
12,OC[C@@]1(O)C[C@H](NCC2CCCCC2)[C@H](O)[C@@H](O)[C@@H]1O,9.3

# Same assay, conditions: given in the examples; read-out: IC50 (saccharase)
row,Structure (SMILES),IC50 [nM]
1,"OC[C@@]1(O)C[C@H](NC2CCCCC2)[C@H](O)[C@@H](O)[C@@H]1O [Example 37, N-cyclohexylvaliolamine]",15
2,"OCC(N[C@H]1C[C@H](CO)[C@@H](O)[C@H](O)[C@H]1O)[C@@H](O)[C@H](O)[C@@H](O)CO (stereo partly drawn) [Example 16, N-(L-xylo-2,3,4,5-tetrahydroxy-1-hydroxymethylpentyl)validamine]",79
3,"COc1ccccc1C(O)CN[C@H]1C[C@](O)(CO)[C@@H](O)[C@H](O)[C@H]1O (stereo partly drawn) [Example 41, N-(β-hydroxy-2-methoxyphenetyl)valiolamine]",9.9
4,"CC(C)=CCC/C(C)=C/CN[C@H]1C[C@H](CO)[C@@H](O)[C@H](O)[C@H]1O [Example 12, N-geranylvalidamine sulfate]",790
5,"CC(C)(C)c1cc(CN[C@H]2C[C@](O)(CO)[C@@H](O)[C@H](O)[C@H]2O)cc(C(C)(C)C)c1O [Example 40, N-(3,5,-di-tert-butyl-4-hydroxybenzyl)valiolamine]",6.8
